Data as given in PubChem BioAssay AID248 (DTP/NCI, 2004).
Inconclusive results and toxic doses are left out. Cut-off read from the data, not from the text of the source: active = T/C of 150% or more; inactive = T/C below 125%.

System: L1210 leukemia ip in BDF1 mice, survival T/C
Experiment: NCI In Vivo Anticancer Drug Screen. Data for tumor model L1210 Leukemia (intraperitoneal) in B6D2F1 (BDF1) mice
Conditions: endpoint: mean survival time, higher = longer survival
Method in brief: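 Ratio derived from survival: compound-dosed mice over vehicle-dosed mice, all bearing a transplantable tumor.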

[1] = dose: 100.0 mg/kg/injection, schedule: Q01DX009 (ip), vehicle: saline
[2] = dose: 100.0 mg/kg/injection, schedule: Q04DX003 (ip), vehicle: saline
[3] = dose: 200.0 mg/kg/injection, schedule: Q01DX009 (ip), vehicle: saline
[4] = dose: 200.0 mg/kg/injection, schedule: Q04DX003 (ip), vehicle: saline
[5] = dose: 400.0 mg/kg/injection, schedule: Q04DX003 (ip), vehicle: saline
[6] = dose: 100.0 mg/kg/injection, schedule: Q01DX001 (ip), vehicle: saline
[7] = dose: 200.0 mg/kg/injection, schedule: Q01DX001 (ip), vehicle: saline
[8] = dose: 75.0 mg/kg/injection, schedule: Q01DX009 (ip), vehicle: saline
[9] = dose: 150.0 mg/kg/injection, schedule: Q01DX009 (ip), vehicle: saline
[10] = dose: 400.0 mg/kg/injection, schedule: Q01DX001 (ip), vehicle: saline
[11] = dose: 100.0 mg/kg/injection, schedule: Q01DX009 (ip), vehicle: saline with Tween-80
[12] = dose: 100.0 mg/kg/injection, schedule: Q04DX003 (ip), vehicle: saline with Tween-80
[13] = dose: 200.0 mg/kg/injection, schedule: Q01DX009 (ip), vehicle: saline with Tween-80
[14] = dose: 200.0 mg/kg/injection, schedule: Q04DX003 (ip), vehicle: saline with Tween-80
[15] = dose: 400.0 mg/kg/injection, schedule: Q01DX009 (ip), vehicle: saline with Tween-80
[16] = dose: 400.0 mg/kg/injection, schedule: Q04DX003 (ip), vehicle: saline with Tween-80
[17] = dose: 50.0 mg/kg/injection, schedule: Q01DX009 (ip), vehicle: Klucel (hydroxypropylcellulose) (HPC)
[18] = dose: 100.0 mg/kg/injection, schedule: Q01DX009 (ip), vehicle: Klucel (hydroxypropylcellulose) (HPC)
[19] = dose: 200.0 mg/kg/injection, schedule: Q01DX009 (ip), vehicle: Klucel (hydroxypropylcellulose) (HPC)

Measured: T/C

C[n+]1ccc(/C=C/c2ccc(Cl)c(Cl)c2)c2ccccc21
inactive: dose: 12.5 mg/kg/injection, schedule: Q04DX003 (ip), vehicle: Klucel (hydroxypropylcellulose) (HPC) 98 % of control | dose: 25.0 mg/kg/injection, schedule: Q04DX003 (ip), vehicle: Klucel (hydroxypropylcellulose) (HPC) 100 % of control | dose: 50.0 mg/kg/injection, schedule: Q04DX003 (ip), vehicle: Klucel (hydroxypropylcellulose) (HPC) 96 % of control

CC(=O)OC1CCC2(C)C(CCC3C2CCC2(C)C3CC3OC(CCC(C)(C)O)C(C)C32)C1 (stereo unspecified)
inactive: dose: 100.0 mg/kg/injection, schedule: Q01DX001 (ip), vehicle: saline with Tween-80 92 % of control | dose: 200.0 mg/kg/injection, schedule: Q01DX001 (ip), vehicle: saline with Tween-80 92 % of control | dose: 400.0 mg/kg/injection, schedule: Q01DX001 (ip), vehicle: saline with Tween-80 92 % of control

CC(NC(=O)C(F)(F)F)C(=O)O (stereo unspecified)
inactive: [1] 92 % of control | [2] 103 % of control | [3] 95 % of control | [4] 93 % of control | dose: 400.0 mg/kg/injection, schedule: Q01DX009 (ip), vehicle: saline 113 % of control | [5] 97 % of control

C=CCOC(=O)C(C)O (stereo unspecified)
inactive: dose: 50.0 mg/kg/injection, schedule: Q01DX009 (ip), vehicle: saline 98 % of control | [6] 105 % of control | [1] 98 % of control | [7] 105 % of control | [3] 98 % of control

O=C(Cc1ccccn1)NCCc1ccccc1
inactive: [8] 93 % of control | dose: 75.0 mg/kg/injection, schedule: Q04DX003 (ip), vehicle: saline 108 % of control | [9] 94 % of control | dose: 150.0 mg/kg/injection, schedule: Q04DX003 (ip), vehicle: saline 108 % of control | dose: 300.0 mg/kg/injection, schedule: Q04DX003 (ip), vehicle: saline 90 % of control

[N-]=[N+]=NCC1OC(n2cnc3c(N)ncnc32)C(O)C1O (stereo unspecified)
inactive: [6] 95 % of control | [7] 103 % of control | [10] 103 % of control

C=CCCCCCCCCC(=O)Cl
inactive: [11] 89 % of control | [12] 97 % of control | [13] 88 % of control | [14] 101 % of control | [15] 98 % of control | [16] 95 % of control

CC(=O)NC(O)C(Cl)(Cl)Cl (stereo unspecified)
inactive: dose: 100.0 mg/kg/injection, schedule: Q01DX009 (ip), vehicle: saline sonified 102 % of control | [12] 100 % of control | dose: 200.0 mg/kg/injection, schedule: Q01DX009 (ip), vehicle: saline sonified 95 % of control | [14] 96 % of control | dose: 400.0 mg/kg/injection, schedule: Q01DX009 (ip), vehicle: saline sonified 93 % of control | [16] 110 % of control

CNC(=O)Nc1ncn[nH]1
inactive: dose: 75.0 mg/kg/injection, schedule: Q01DX001 (ip), vehicle: carboxymethylcellulose (CMC) 103 % of control | dose: 150.0 mg/kg/injection, schedule: Q01DX001 (ip), vehicle: carboxymethylcellulose (CMC) 98 % of control | dose: 300.0 mg/kg/injection, schedule: Q01DX001 (ip), vehicle: carboxymethylcellulose (CMC) 104 % of control

O=c1[nH]cnc2c1cnn2C1OC(CO)C(O)C1O (stereo unspecified)
inactive: dose: 12.5 mg/kg/injection, schedule: Q01DX005 (ip), vehicle: water 92 % of control | dose: 25.0 mg/kg/injection, schedule: Q01DX005 (ip), vehicle: water 106 % of control | dose: 50.0 mg/kg/injection, schedule: Q01DX005 (ip), vehicle: water 97 % of control | dose: 100.0 mg/kg/injection, schedule: Q01DX005 (ip), vehicle: water 108 % of control | dose: 200.0 mg/kg/injection, schedule: Q01DX005 (ip), vehicle: water 93 % of control

N#CC1CCCC1=O (stereo unspecified)
inactive: dose: 5.0 mg/kg/injection, schedule: Q01DX009 (ip), vehicle: saline 97 % of control | dose: 10.0 mg/kg/injection, schedule: Q01DX009 (ip), vehicle: saline 101 % of control | dose: 20.0 mg/kg/injection, schedule: Q01DX009 (ip), vehicle: saline 106 % of control

CC(=O)Nc1c([N+](=O)[O-])cc2c3c(cccc13)C=C2
inactive: [13] 96 % of control | [15] 96 % of control

CCOC(=O)/C=C1\CC2c3cc(OC)c(OC)cc3CCN2CC1CC (stereo unspecified)
inactive: [17] 93 % of control | [18] 96 % of control | [19] 96 % of control

CCOc1ccc(C(=O)OCCCl)cc1
inactive: [12] 110 % of control | [14] 109 % of control | [16] 109 % of control

O=C1OCCN1S(=O)(=O)c1ccc(Cl)c(Cl)c1
inactive: [18] 87 % of control | dose: 100.0 mg/kg/injection, schedule: Q04DX003 (ip), vehicle: Klucel (hydroxypropylcellulose) (HPC) 100 % of control | [19] 97 % of control | dose: 200.0 mg/kg/injection, schedule: Q04DX003 (ip), vehicle: Klucel (hydroxypropylcellulose) (HPC) 105 % of control | dose: 400.0 mg/kg/injection, schedule: Q01DX009 (ip), vehicle: Klucel (hydroxypropylcellulose) (HPC) 90 % of control | dose: 400.0 mg/kg/injection, schedule: Q04DX003 (ip), vehicle: Klucel (hydroxypropylcellulose) (HPC) 101 % of control

CCOC(=O)CCN(Cc1ccccc1)CC(C)C(=O)OC (stereo unspecified)
inactive: [11] 102 % of control | [12] 104 % of control | [13] 97 % of control | [14] 91 % of control | [15] 95 % of control | [16] 96 % of control

CCCCN(CCCC)CC(O)c1cc(Cl)cc2cccnc12 (stereo unspecified)
inactive: dose: 12.5 mg/kg/injection, schedule: Q01DX009 (ip), vehicle: Klucel (hydroxypropylcellulose) (HPC) 106 % of control | dose: 25.0 mg/kg/injection, schedule: Q01DX009 (ip), vehicle: Klucel (hydroxypropylcellulose) (HPC) 98 % of control | [17] 109 % of control

Nc1nc(N)c(CCCCc2ccccc2)c(Cc2ccccc2)n1
inactive: [17] 98 % of control | [18] 106 % of control | [19] 98 % of control

S=c1[nH]c2c(Cl)c(Cl)c(Cl)c(Cl)c2[nH]1
inactive: [11] 90 % of control | [12] 100 % of control | [13] 95 % of control | [14] 98 % of control | [16] 102 % of control

Cc1noc(C)c1[N+](=O)[O-]
inactive: [8] 97 % of control | [9] 94 % of control | dose: 300.0 mg/kg/injection, schedule: Q01DX009 (ip), vehicle: saline 101 % of control

CCOC(=O)C1=C(C)CC(=O)NC1=O
inactive: [6] 115 % of control | [2] 108 % of control | [7] 114 % of control | [4] 90 % of control | [10] 111 % of control | [5] 90 % of control

C(=NCC1CCC(CN=Cc2ccco2)CC1)c1ccco1 (stereo unspecified)
inactive: [11] 94 % of control | [12] 109 % of control | [13] 98 % of control | [14] 102 % of control | [15] 100 % of control | [16] 106 % of control

c1coc(-c2ncc3cnccn23)c1
inactive: dose: 50.0 mg/kg/injection, schedule: Q01DX005 (ip), vehicle: saline 111 % of control | dose: 100.0 mg/kg/injection, schedule: Q01DX005 (ip), vehicle: saline 108 % of control
